The values below come from PMC6508961, “A high-throughput screen of pharmacologically active compounds for inhibitors of UHRF1 reveals epigenetic activity of anthracycline derivative chemotherapeutic drugs” (Oncotarget, 2019).

Where two headings read alike, the source gives them in different places.

One may read the IC50 as the point on the concentration scale where inhibition reaches its midpoint.

For assay [1], the target named is T1, UHRF1_SRA binding to hemimethylated DNA (Homo sapiens, UniProt Q96T88).
T1 construct: made in house; host or cells: E. coli BL-21 Gold
T1 sequence (Q96T88 419-582 limits assumed): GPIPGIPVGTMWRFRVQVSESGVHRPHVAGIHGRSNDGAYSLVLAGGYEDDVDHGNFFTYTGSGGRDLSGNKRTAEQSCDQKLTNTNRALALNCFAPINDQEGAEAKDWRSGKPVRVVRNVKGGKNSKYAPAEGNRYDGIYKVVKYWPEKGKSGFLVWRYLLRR
Briefly: TR-FRET assay, dose-response inhibition of UHRF1_SRA binding to FAM-labeled hemimethylated DNA. The conditions noted are these: for Dose-response validation of screen hits (result in words): dilution series 50 μM to 0.64 nM, quadruplicate. Here is the method: TR-FRET assays were performed in an optimized TR-FRET buffer (4% glycerol, 1 mM MgCl2, 0.5 mM EDTA, 0.5 mM DTT, 125 mM NaCl, 10 mM Tris HCl, and 0.2% Tween-20) in non-binding, flat-bottom 384-well plates (Corning). UHRF1_SRA protein was added to a final concentration of 125 nM and terbium-labeled antibody was added at 5 nM (Life Technologies) in a final reaction volume of 20 μL. For initial binding experiments examining the affinity of UHRF1_SRA to DNA, FAM-labeled hemimethylated or unmethylated double stranded oligonucleotides were added in a dilution series, and the reaction mixture was incubated at 4°C with shaking for 1 hour. TR-FRET measurements were made on a SpectraMax M5 (Molecular Devices, Sunnyvale, CA, USA), using an excitation wavelength of 332 nm and emissions read at 485 nm and 515 nm with a 50 μsec delay and 400 μsec integration. The ratio of the 515 nm emission (arising from FRET) to the 485 nm emission provides a normalized TR-FRET signal that represents the extent of binding. For inhibitor curves, FAM-labeled hemimethylated oligonucleotide was added to a final concentration of 100 nM, and unlabeled oligonucleotide was added in a dilution series. A Z’ factor was calculated for 32 replicates of UHRF1_SRA protein binding FAM-labeled hemimethylated DNA with or without the addition of an excess (5 μM) of unlabeled hemimethylated inhibitor (“cold” perfect competitive inhibitor positive control for inhibition):
Each hit compound was tested using the TR-FRET assay above in quadruplicate in a dilution series (50 μM to 0.64 nM). Curve fitting was performed using the open source software R version 2.15.2 with the ggplot2 package.
On the technique in general: In TR-FRET formats the signal depends on donor and acceptor labels being close together.

Assay [2] has as its target T1, UHRF1_SRA binding to hemimethylated DNA. As to the kind of experiment: LOPAC primary screen with the TR-FRET assay. The settings on record: 20 μM; hit = Z-score < −4.08, Bonferroni adjusted p-value < 0.05. Here is the method:
The above TR-FRET assay was employed to screen the Library of Pharmacologically Active Compounds (LOPAC) (Sigma-Aldrich) using optimized conditions. 200 uM stock solutions of compounds dissolved in dimethyl sulfoxide (DMSO) were added to a final concentration of 20 μM across four 384-well plates containing 20 μL of TR-FRET buffer with 125 nM UHRF1_SRA protein, 100 nM double stranded FAM-labeled hemimethylated oligos, and 5 nM terbium labeled anti-HIS antibody. Controls on each plate include: 1) a DMSO-only vehicle control, 2) 5μM of unlabeled, methylated oligonucleotide as a positive inhibition control, 3) unmethylated, FAM-labeled oligonucleotide as a negative control, and 4) no UHRF1_SRA protein negative control. Each plate was incubated at 4° C for one hour and read using a Safire^2 (Tecan Group, Männedorf, Switzerland) with excitation at 332 nm and emissions read at 485 nm and 515 nm. A Z score of the TR-FRET signal (ratio of 515 nm signal to the 485 nm signal) was calculated for each compound using the following formula: […]
where x is the TR-FRET signal for each compound, x¯ is the median TR-FRET signal of all compounds on the plate, and σ is the standard deviation of all compound TR-FRET signals across the plate. Hits were defined as those compounds with Z-score < −4.08 corresponding to a Bonferroni adjusted p-value of less than 0.05.

For assay [3], the system named is DU-145 cells. Briefly: Clonogenic survival assay. The conditions noted are these: 10 days; for Clonogenic survival, drug alone: decitabine 50 nM, mitoxantrone 2.5 nM, doxorubicin 5 nM; for Clonogenic survival, in combination with decitabine: mitoxantrone 2.5 nM or doxorubicin 5 nM with 50 nM decitabine.
The subject of assay [4] is DU-145 cells. As to the kind of experiment: Growth curve assay (IncuCyte). It counts as cell-based. The conditions noted are these: mitoxantrone 1.25 nM or doxorubicin 5 nM or 10 nM with 50 nM decitabine. Here is the method:
The next day, cells were treated with a single dose of DMSO (vehicle control), decitabine alone (50 nM), mitoxantrone alone (1.25 nM), doxorubicin alone (5 nM or 10 nM), or decitabine in combination with mitoxantrone (1.25 nM) or doxorubicin (5 nM or 10 nM). Cell growth was measured using IncuCyte™ technology (Essen Bioscience, Ann Arbor, MI, USA) by imaging 16 fields per well at 6 hour intervals. The cell surface area and percent confluence were calculated using IncuCyte software, and growth curves were constructed in R using the ggplot2 package.

Assay [5] deals with C42B prostate cancer cell line. Briefly: Cellular growth/proliferation assay. The conditions noted are these: mitoxantrone 2.5 nM or doxorubicin 5 nM with decitabine 50 nM. The assay is classed as cell-based. Here is the method:
(§1) www.oncotarget.com Oncotarget, Supplementary Materials […]
(§2) derivative chemotherapeutic drugs
(§3) Supplementary Figure 1: Cellular growth/proliferation assays of C42B, PC-3 and LNCaP prostate cancer cell lines treated with mitoxantrone (2.5 nM) or doxorubicin (5 nM) in combination with decitabine (50 nM) or vehicle control (DMSO), decitabine alone, or DMSO alone.
(§4) (1 picture or pasted object on this page, not shown here)

The subject of assay [6] is LNCaP prostate cancer cell line. As to the kind of experiment: Cellular growth/proliferation assay. The assay is classed as cell-based. The conditions noted are these: mitoxantrone 2.5 nM or doxorubicin 5 nM with decitabine 50 nM. Here is the method: as §1, §2, §3, §4
Assay [7] relates to PC-3 prostate cancer cell line. As to the kind of experiment: Cellular growth/proliferation assay. It counts as cell-based. The settings on record: mitoxantrone 2.5 nM or doxorubicin 5 nM with decitabine 50 nM. Here is the method: as §1, §2, §3, §4
Setting [8] is: 125 nM UHRF1_SRA, 100 nM FAM-labeled hemimethylated oligo, read-out: IC50 of inhibition of UHRF1_SRA binding to labeled hemimethylated DNA.

In the case of `NC(Cc1cc(O)c(O)cc1O)C(=O)O` (racemic) [6-OH-DL-DOPA], the “Dose-response validation of screen hits (result in words)” value (shortened to “Dose-response validation of screen hits”) in assay [1] is on record as “failed to show any appreciable inhibition”. Besides, the “Inhibition of UHRF1_SRA binding to hemimethylated DNA in pilot screen” value (“Inhibition of UHRF1_SRA binding” below) in assay [2] was “significantly inhibited”.
For `S=C=Nc1ccc2oc(C3=NCCN3)cc2c1` [BU99006] the same measures were “failed to show any appreciable inhibition” and “significantly inhibited”.
For `COc1cccc2c1C(=O)c1c(O)c3c(c(O)c1C2=O)C[C@@](O)(C(C)=O)C[C@@H]3O[C@H]1C[C@H](N)[C@H](O)[C@H](C)O1` [Daunorubicin, daunorubicin], the IC50 in assay [1] (setting [8]) was found to be 313 nM.
With `O=C(Nc1cccc(C(=O)Nc2ccc(S(=O)(=O)O)c3cc(S(=O)(=O)O)cc(S(=O)(=O)O)c23)c1)Nc1cccc(C(=O)Nc2ccc(S(=O)(=O)O)c3cc(S(=O)(=O)O)cc(S(=O)(=O)O)c23)c1` [NF023], in assay [1] (setting [8]), the IC50 came to 840 nM. The “Dose-response validation of screen hits” value in assay [1] is on record as “inhibited binding with a sigmoidal dose response”. For the same molecule, in assay [2], the “Inhibition of UHRF1_SRA binding” value is “significantly inhibited”.
The matching figures for `O=C(Nc1cc(C(=O)Nc2ccc(S(=O)(=O)O)cc2S(=O)(=O)O)cc(C(=O)Nc2ccc(S(=O)(=O)O)cc2S(=O)(=O)O)c1)Nc1cc(C(=O)Nc2ccc(S(=O)(=O)O)cc2S(=O)(=O)O)cc(C(=O)Nc2ccc(S(=O)(=O)O)cc2S(=O)(=O)O)c1` [NF449]: 393 nM, “inhibited binding with a sigmoidal dose response” and “significantly inhibited”.
`N=C1Sc2ccccc2C2=NCCCN12` [PD404,182]: the “Dose-response validation of screen hits” value in assay [1] is listed as “failed to show any appreciable inhibition”. Further, the “Inhibition of UHRF1_SRA binding” value in assay [2] is “significantly inhibited”.
As for `Cc1nc(N=Nc2cc(S(=O)(=O)O)c3cc([N+](=O)[O-])cc(S(=O)(=O)O)c3c2)c(COP(=O)(O)O)c(C=O)c1O` [PPNDS], in assay [1] (setting [8]), the IC50 was 770 nM. Besides, the “Dose-response validation of screen hits” value in assay [1] is “inhibited binding with a sigmoidal dose response”. Further, the “Inhibition of UHRF1_SRA binding” value in assay [2] is “significantly inhibited”.
Turning to `NCCNc1ccc(NCCN)c2c1C(=O)c1ccncc1C2=O` [Pixantrone, pixantrone], the IC50 in assay [1] (setting [8]) is 557 nM.
Consider `Nc1c(S(=O)(=O)O)cc(Nc2ccc(Nc3nc(Cl)nc(Nc4cccc(S(=O)(=O)O)c4)n3)c(S(=O)(=O)O)c2)c2c1C(=O)c1ccccc1C2=O` [Reactive Blue 2], for which, in assay [2], the “Inhibition of UHRF1_SRA binding” value is “significantly inhibited”.
Regarding `Cc1ccc(C(=O)Nc2ccc(S(=O)(=O)O)c3cc(S(=O)(=O)O)cc(S(=O)(=O)O)c23)cc1NC(=O)c1cccc(NC(=O)Nc2cccc(C(=O)Nc3cc(C(=O)Nc4ccc(S(=O)(=O)O)c5cc(S(=O)(=O)O)cc(S(=O)(=O)O)c45)ccc3C)c2)c1` [Suramin], the IC50 in assay [1] (setting [8]) was determined as 2250 nM. The “Dose-response validation of screen hits” value in assay [1] is reported as “inhibited binding with a sigmoidal dose response”. In addition, in assay [2], the “Inhibition of UHRF1_SRA binding” value is on record as “significantly inhibited”.
For `O=C(O)C1=CC(=C(c2ccc(O)c(C(=O)O)c2)c2ccc(O)c(C(=O)O)c2)C=CC1=O` [aurintricarboxylic acid] the same measures were 21 nM, “inhibited binding with a sigmoidal dose response” and “significantly inhibited”.
For the molecule `Nc1ncn([C@H]2C[C@H](O)[C@@H](CO)O2)c(=O)n1` [decitabine], the “Clonogenic survival, drug alone” value in assay [3] is listed as “some reduction in clonogenic survival”.
On to `CN(N=O)c1cc(O)ccc1O` [dephostatin], for which the “Dose-response validation of screen hits” value in assay [1] is on record as “failed to show any appreciable inhibition”. Further, the “Inhibition of UHRF1_SRA binding” value in assay [2] is given as “significantly inhibited”.
The molecule `COc1cccc2c1C(=O)c1c(O)c3c(c(O)c1C2=O)C[C@@](O)(C(=O)CO)C[C@@H]3O[C@H]1C[C@H](N)[C@H](O)[C@H](C)O1` [doxorubicin] gave an IC50 in assay [1] of 131 nM. Also, in assay [4], the “Growth curve analysis, in combination with decitabine” value is listed as “synergy”. In addition, the “Growth/proliferation, combination with decitabine” value in assay [5] was “showed enhanced”; in assay [6], “did not show enhanced growth inhibition”; in assay [7] it was “showed enhanced”. Besides, the “Clonogenic survival, drug alone” value in assay [3] is “some reduction in clonogenic survival”. Further, in assay [3], the “Clonogenic survival, in combination with decitabine” value is recorded as “significantly enhanced reduction in clonogenic survival”.
Regarding `CC(=O)[C@]1(O)Cc2c(O)c3c(c(O)c2[C@@H](O[C@H]2C[C@H](N)[C@H](O)[C@H](C)O2)C1)C(=O)c1ccccc1C3=O` [idarubicin], the IC50 in assay [1] (setting [8]) was determined as 593 nM. Also, in assay [1], the “Dose-response validation of screen hits” value is “inhibited binding with a sigmoidal dose response”. In addition, in assay [2], the “Inhibition of UHRF1_SRA binding” value is recorded as “significantly inhibited”.
For the molecule `CN(N=O)c1ccc(O)c(O)c1` [methyl-3,4-dephostatin], in assay [1], the “Dose-response validation of screen hits” value is recorded as “failed to show any appreciable inhibition”. Moreover, the “Inhibition of UHRF1_SRA binding” value in assay [2] is “significantly inhibited”.
For `O=C1c2c(O)ccc(O)c2C(=O)c2c(NCCNCCO)ccc(NCCNCCO)c21` [mitoxantrone], the IC50 in assay [1] (setting [8]) came out at 134 nM. In addition, the “Dose-response validation of screen hits” value in assay [1] is given as “inhibited binding with a sigmoidal dose response”. Further, in assay [2], the “Inhibition of UHRF1_SRA binding” value is reported as “significantly inhibited”. For the same molecule, the “Growth curve analysis, in combination with decitabine” value in assay [4] is listed as “synergy”. In addition, the “Growth/proliferation, combination with decitabine” value in assay [5], in assay [6] and in assay [7] was “enhanced inhibition of” each time. In addition, the “Clonogenic survival, drug alone” value in assay [3] is recorded as “some reduction in clonogenic survival”. In addition, in assay [3], the “Clonogenic survival, in combination with decitabine” value was “significantly enhanced reduction in clonogenic survival”.
Consider `N#CC(C#N)=C(N)/C(C#N)=C/c1cc(O)c(O)c(O)c1` [tyrphostin 51], for which the “Dose-response validation of screen hits” value in assay [1] is reported as “failed to show any appreciable inhibition”. Moreover, the “Inhibition of UHRF1_SRA binding” value in assay [2] is recorded as “significantly inhibited”.
